For data set [1], the system named is Osteoclast. Description: Antiresorptive activity in 1,25-dihydroxyvitamin D3-stimulated Swiss Webster mouse osteoclast assessed as blockade of ruffled membrane formation on bone slices at 10 uM after 3 days. Format: functional, cell-based.
In data set [2] the test system is Osteoclast. Description: Antiresorptive activity in 1,25-dihydroxyvitamin D3-stimulated Swiss Webster mouse osteoclast assessed as blockade of ruffled membrane formation on bone slices at 100 uM after 3 days. Type of data set: functional, cell-based.
Data set [3] concerns Bone marrow cell. Description: Antiresorptive activity in 1,25-dihydroxyvitamin D3-stimulated Swiss Webster mouse bone marrow cells assessed as reduction in resorptive area at 25 uM after 5 days. Type of data set: functional, cell-based.
Data set [4] has as its system Bone marrow cell. Briefly: Antiresorptive activity in 1,25-dihydroxyvitamin D3-stimulated Swiss Webster mouse bone marrow cells at 100 uM after 5 days. Type of data set: functional, cell-based.
Data set [5] deals with Bone marrow cell. Description: Antiresorptive activity in 1,25-dihydroxyvitamin D3-stimulated Swiss Webster mouse bone marrow cells assessed as reduction in bone pit formation at 10 uM after 5 days. Type of data set: functional, cell-based.
Data set [6] concerns Bone marrow cell. Description: Antiresorptive activity in 1,25-dihydroxyvitamin D3-stimulated Swiss Webster mouse bone marrow cells assessed as reduction in bone pit formation at 25 uM after 5 days. Format: functional, cell-based.
Data set [7] is described as follows: Reduction in osteoblast formation from mouse MC3T3-E1 cells assessed as alkaline phosphatase activity at 100 uM after 3 days. Type of data set: cell-based. The settings on record: mc3t3-e1, 72 h.
Data set [8] in a line: Reduction in mouse MC3T3-E1 cell growth at 100 uM after 3 days. Format: cell-based. The settings on record: mc3t3-e1, 72 h.
The nature of data set [9]: Cytotoxicity against mouse MC3T3-E1 cells assessed as change in morphology at 100 uM after 3 days. Type of data set: cell-based. Conditions: mc3t3-e1, 72 h.
Data set [10] has as its target V-type proton ATPase subunit B (Saccharomyces cerevisiae S288c) (UniProt P16140). Briefly: Inhibition of Saccharomyces cerevisiae V-ATPase subunit B expressed in Escherichia coli binding to rabbit muscle actin filament at 100 uM by pelleting assay. The settings on record: Muscle tissue.
Data set [11] concerns the target V-type proton ATPase subunit B, brain isoform (Homo sapiens, UniProt P21281). Description: Inhibition of maltose binding protein-fused human V-ATPase subunit B2 binding to F-actin.
For data set [12], the system named is Bone marrow cell. Description: (§1) Antiresorptive activity against 1,25-dihydroxyvitamin D3-stimulated osteoclast formation in Swiss Webster mouse bone marrow cells assessed as reduction of tartrate-resistant acid phosphatase activity after 7 days. Type of data set: functional, cell-based.
In data set [13] the test system is Bone marrow cell. Description: Antiresorptive activity in 1,25-dihydroxyvitamin D3-stimulated Swiss Webster mouse bone marrow cells after 5 days. Type of data set: functional, cell-based.
For data set [14], the system named is Osteoclast. Briefly: Antiresorptive activity in 1,25-dihydroxyvitamin D3-stimulated Swiss Webster mouse osteoclast assessed as blockade of actin ring formation on bone slices at 1 uM after 3 days. Type of data set: functional, cell-based.
Data set [15] deals with Osteoclast. Briefly: Antiresorptive activity in 1,25-dihydroxyvitamin D3-stimulated Swiss Webster mouse osteoclast assessed as blockade of ruffled membrane formation on bone slices at 1 uM after 3 days. Type of data set: functional, cell-based.
Data set [16] concerns Osteoclast. Briefly: Antiresorptive activity in 1,25-dihydroxyvitamin D3-stimulated Swiss Webster mouse osteoclast assessed as blockade of actin ring formation on bone slices at 10 uM after 3 days. Format: functional, cell-based.
For data set [17], the system named is Osteoclast. Briefly: Antiresorptive activity in 1,25-dihydroxyvitamin D3-stimulated Swiss Webster mouse osteoclast assessed as blockade of actin ring formation on bone slices at 100 uM after 3 days. Format: functional, cell-based.
Data set [18] can be described thus: as §1. The settings on record: Bone marrow cell, 168 h. Type of data set: functional, cell-based.

The structures appear in SMILES notation. Active and inactive are the calls of the source. The rule behind the calls is not given here. Where only a bound is given, the exact number is not on record here.

The term IC50 denotes the point on the concentration scale where inhibition reaches its midpoint.

Sequence of V-type proton ATPase subunit B, brain isoform (P21281 whole entry, the tested form may be a part, canonical isoform): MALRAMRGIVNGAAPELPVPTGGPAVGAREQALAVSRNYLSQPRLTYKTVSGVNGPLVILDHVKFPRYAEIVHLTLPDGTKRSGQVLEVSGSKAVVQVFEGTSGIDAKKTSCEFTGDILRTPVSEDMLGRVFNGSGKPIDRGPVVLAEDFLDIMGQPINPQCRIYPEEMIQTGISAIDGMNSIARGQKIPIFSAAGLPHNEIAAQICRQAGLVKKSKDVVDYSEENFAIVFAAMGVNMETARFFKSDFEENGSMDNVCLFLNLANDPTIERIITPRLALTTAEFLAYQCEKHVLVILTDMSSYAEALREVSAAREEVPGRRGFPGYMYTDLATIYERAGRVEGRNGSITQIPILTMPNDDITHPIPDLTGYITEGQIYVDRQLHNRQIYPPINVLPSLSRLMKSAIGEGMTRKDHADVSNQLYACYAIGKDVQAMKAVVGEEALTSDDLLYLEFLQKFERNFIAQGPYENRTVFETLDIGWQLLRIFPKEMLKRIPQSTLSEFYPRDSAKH
Sequence of V-type proton ATPase subunit B (Saccharomyces cerevisiae S288c) (P16140 whole entry, the tested form may be a part, canonical isoform): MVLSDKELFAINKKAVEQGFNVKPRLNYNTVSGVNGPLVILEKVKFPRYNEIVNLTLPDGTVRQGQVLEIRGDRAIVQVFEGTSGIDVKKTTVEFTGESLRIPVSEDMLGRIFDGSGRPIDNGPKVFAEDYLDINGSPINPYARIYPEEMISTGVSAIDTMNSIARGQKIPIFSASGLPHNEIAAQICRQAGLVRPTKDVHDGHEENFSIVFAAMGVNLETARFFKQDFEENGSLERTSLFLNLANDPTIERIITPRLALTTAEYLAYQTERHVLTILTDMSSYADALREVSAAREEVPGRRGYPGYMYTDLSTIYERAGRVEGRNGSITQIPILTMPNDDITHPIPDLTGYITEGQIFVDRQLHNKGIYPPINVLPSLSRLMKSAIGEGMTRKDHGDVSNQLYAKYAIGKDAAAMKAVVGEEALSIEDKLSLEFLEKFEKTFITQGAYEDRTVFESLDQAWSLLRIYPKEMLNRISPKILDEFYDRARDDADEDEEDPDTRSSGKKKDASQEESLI

On to `CCn1cc(C(=O)O)c(=O)c2cc(F)c(N3CCNCC3)nc21` [ENOXACIN], for which the outcome with Osteoclast [1], in the data set with Osteoclast [2], with Bone marrow cell [3], in the data set on Bone marrow cell [4], in the data set with Bone marrow cell [5] and with Bone marrow cell [6] was Active. The outcome in the data set on Osteoclast [16] and in the data set with Osteoclast [17] was Active. For the same compound, the Activity result in data set [7] is “Toxic”; in data set [8], “Toxic”; in data set [9], “Toxic”; in the data set on Bone marrow cell [12] it was “Dose-dependent effect”; in the data set on Bone marrow cell [13] it was “Dose-dependent effect”. Moreover, the inhibition result in [10] was “Active”. This compound also returned an IC50 in [11] of 10 µM. Also, the result in the data set on Osteoclast [14] and in the data set on Osteoclast [15] was inactive.

As for `CCn1cc(C(=O)O)c(=O)c2cc(F)c(N3CCN(C)CC3)cc21` [PEFLOXACIN], in data set [18], the IC50 was greater than 50 µM.

The values are drawn from ChEMBL document CHEMBL1152980, “Identification of enoxacin as an inhibitor of osteoclast formation and bone resorption by structure-based virtual screening” (J Med Chem, 2009).
